Laboratory results: patent publication US20090312414A1, “Treatment Of Lower Urinary Tract Dysfunction With CB2-Receptor-Selective Agonists” (priority 2008, published 2009)

What was measured:
[1] = target: CB2 receptor (Homo sapiens, UniProt P34972); assay: CB2 binding assay (displacement of radiolabeled agonist)
[2] = test system: conscious normal rats; assay: Cystometry in normal conscious rats; assay type: in vivo, rat; conditions: for Residual volume (RV): ns
From the text: This study involved a determination of the acute effect of the compound of Formula I, a peripherally-selective, CB2-receptor-selective agonist, on normal bladder function in normal conscious freely moving rats using cystometry.
Female Sprague-Dawley rats, weighing 225-300 g, were maintained under standard laboratory conditions with a 12:12 light/dark cycle and free access to food pellets and water. After surgical procedures, rats were individually caged to prevent chewing of the catheters. For surgical procedures, the rats were anesthetized by intraperitoneal injection of 75 mg/kg ketamine (Ketalar®, Pfizer, Sweden) and 15 mg/kg xylazine (Rompun®, Bayer, Sweden).
The bladder was exposed via a mid-line incision of the lower abdomen. A saline-filled polyethylene catheter (PE-50, Clay-Adams, Parsippany, N.J.) with a cuff was inserted into the dome of the bladder and held in place with a purse string suture. The catheter was tunneled subcutaneously and anchored at the neck with a silk ligature, and the free end of the catheter was sealed.
In the same surgical session as for implantation of the bladder catheter, access to the femoral vein was given via the mid-line incision of the lower abdomen after careful blunt dissection of the subcutaneous fascias and the femoral vascular sheath. A stretched PE-50 catheter filled with heparinized saline was introduced into the femoral vein and forwarded with its tip in the iliac vein. The catheter was then secured in position by two ligatures, tunneled subcutaneously to the skin of the back and anchored as described above, and the free end of the catheter was sealed.
The appropriate solution of the compound of Formula I was prepared on the day of the experiment using phosphate-buffered saline (“PBS”) as the vehicle. The compound of Formula I was dissolved to obtain a 10 mg/ml stock solution. For the 3 mg/kg dose, each animal was administered individually weight-controlled amounts in a volume of approximately 100 μl IV of the stock solution. For lower doses, appropriate dilutions of the stock solution were made and animals were administered similar volumes containing 0.3 or 1 mg/kg. […] After administration of the compound of Formula I, 100 μl of heparinized saline was also infused to flush the IV catheter, and a 90 to 120-minute observation period was allowed until final stable micturitions were obtained. Each animal served as its own control.
Cystometry was performed without anesthesia three days after the implantation of bladder catheters in normal rats. The conscious rats were placed in metabolic cages without restraint and the bladder catheters were connected via a T-tube to a pressure transducer (P23 DC; Statham Instruments Inc., Oxnard, Calif.) and a microinjection pump (CMA 100; Carnegie Medicine AB, Solna, Sweden). Micturition volumes were recorded with a fluid collector connected to a force displacement transducer (FT 03 D, Grass Instrument Co., Quincy, Mass.). Room-temperature saline was infused into the bladder continuously at a rate of 10 ml/h. Pressures and micturition volumes were recorded continuously with Acq Knowledge 3.8.1 software and a MP100 data acquisition system (Biopac Syst. Inc. Santa Barbara, Calif.) connected to a Grass polygraph (Model 7E, Grass Instrument Co). At the beginning of cystometry, the bladder was emptied via the bladder catheter.
The following urodynamic parameters were investigated: micturition pressure (“MP;” maximum bladder pressure during micturition), threshold pressure (“ThP”; bladder pressure at start of detrusor contraction), flow pressure (“FP”; bladder pressure when urethra opens), micturition interval (“MI”; time between two micturitions), micturition volume (“MV”; volume of the expelled urine), and residual volume (“RV”; volume left in bladder after a micturition). […]

CB2 receptor, sequence (P34972 whole entry): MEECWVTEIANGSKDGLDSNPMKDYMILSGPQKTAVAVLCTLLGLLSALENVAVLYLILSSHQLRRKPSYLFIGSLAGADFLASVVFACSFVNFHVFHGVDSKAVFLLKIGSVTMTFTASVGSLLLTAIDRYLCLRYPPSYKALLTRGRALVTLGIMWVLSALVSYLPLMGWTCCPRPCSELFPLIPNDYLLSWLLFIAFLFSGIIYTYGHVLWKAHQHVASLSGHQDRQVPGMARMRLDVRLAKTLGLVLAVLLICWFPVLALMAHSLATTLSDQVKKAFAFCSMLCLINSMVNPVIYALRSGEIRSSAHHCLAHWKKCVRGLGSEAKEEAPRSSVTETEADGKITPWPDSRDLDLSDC

CCCCCCC(C)(C)c1cc(O)c([C@H]2CC(=O)[C@H]3C[C@@H]2C3(C)C)c(OC(=O)/C=C/C(=O)O)c1 [Formula I]
CB2/CB1 affinity ratio [1]: 34
IC50 ([1]; displaces 50% of a radiolabeled agonist): 19.4 nM
Basal pressure (BP) ([2]; 0.3 mg/kg IV): 4.7±2.0 cmH2O
Micturition pressure (MP) ([2]; 0.3 mg/kg IV): 64.3±12.3 cmH2O
Rats responding with increased MI ([2]; 0.3 mg/kg IV): 5 out of 8
Rats responding with increased MV ([2]; 0.3 mg/kg IV): 5 out of 8
Rats responding with increased ThP ([2]; 0.3 mg/kg IV): 5 out of 8
Bladder capacity (BC) ([2]; 0.3 mg/kg IV, not significant): 0.98 ± 0.21 mL
Flow pressure (FP) ([2]; 0.3 mg/kg IV, not significant): 34.1±8.8 cmH2O
Micturition interval (MI) ([2]; 0.3 mg/kg IV, not significant): 260 ± 69 s
Micturition volume (MV) ([2]; 0.3 mg/kg IV, not significant): 0.93 ± 0.21 mL
Threshold pressure (ThP) ([2]; 0.3 mg/kg IV, not significant): 16.5±2.2 cmH2O
Residual volume (RV) ([2]; 0.3 mg/kg IV): 0.01 ± 0.01 mL
Basal pressure (BP) ([2]; 1 mg/kg IV): 3.7±1.2 cmH2O
Micturition pressure (MP) ([2]; 1 mg/kg IV): 65.1±8.6 cmH2O
Rats responding with increased MI ([2]; 1 mg/kg IV): 3 out of 8
Rats responding with increased MV ([2]; 1 mg/kg IV): 6 out of 8
Rats responding with increased ThP ([2]; 1 mg/kg IV): 1 out of 8
Bladder capacity (BC) ([2]; 1 mg/kg IV, not significant): 0.91 ± 0.17 mL
Flow pressure (FP) ([2]; 1 mg/kg IV, not significant): 26.0±2.4 cmH2O
Micturition interval (MI) ([2]; 1 mg/kg IV, not significant): 251 ± 63 s
Micturition volume (MV) ([2]; 1 mg/kg IV, not significant): 0.90 ± 0.17 mL
Threshold pressure (ThP) ([2]; 1 mg/kg IV, not significant): 12.6±2.0 cmH2O
Residual volume (RV) ([2]; 1 mg/kg IV): 0.01 ± 0.01 mL
Basal pressure (BP) ([2]; 3 mg/kg IV): 9.0±4.3 cmH2O
Micturition pressure (MP) ([2]; 3 mg/kg IV): 87.3±18.9 cmH2O
Rats responding with increased FP ([2]; 3 mg/kg IV): 6 out of 8
Rats responding with increased MI ([2]; 3 mg/kg IV): 7 out of 8
Rats responding with increased MV ([2]; 3 mg/kg IV): 7 out of 8
Rats responding with increased ThP ([2]; 3 mg/kg IV): 7 out of 8
Threshold pressure (ThP) ([2]; 3 mg/kg IV, ANOVA ns, paired t-test vs. baseline p=0.05): 38.1±13.9 cmH2O
Flow pressure (FP) ([2]; 3 mg/kg IV, not significant): 62.3±18.4 cmH2O
Residual volume (RV) ([2]; 3 mg/kg IV): 0.02 ± 0.02 mL
Bladder capacity (BC) ([2]; 3 mg/kg IV, p<0.001 vs. baseline, p<0.005 vs. vehicle): 1.42 ± 0.18 mL
Micturition volume (MV) ([2]; 3 mg/kg IV, p<0.001 vs. baseline, p<0.01 vs. vehicle): 1.4 ± 0.2 mL
Micturition interval (MI) ([2]; 3 mg/kg IV, p<0.02 vs. baseline): 423 ± 63 s
Animals responding with an increase or decrease in FP ([2]; 0.3 and 1 mg/kg IV): 50%
Animals with a decrease in BP ([2]; all doses (0.3, 1, 3 mg/kg IV)): 37.5-50 % of rats
Animals with an increase in BP ([2]; all doses (0.3, 1, 3 mg/kg IV)): 25-37.5 % of rats
Animals with no change in BP ([2]; all doses (0.3, 1, 3 mg/kg IV)): 12.5-25 % of rats
Rats responding with increased BC ([2]; all doses (0.3, 1, 3 mg/kg IV)): 6 out of 8
